Data: patent US20230329236A1, “HERBICIDAL PYRIMIDINE DERIVATIVES” (MoA Technology Limited, priority 2020, published 2023)

Assays:
Settings in all cases: 336 h, Table 3, post-emergence, 14±1 days post application
Veronica persica (VERPE) = test: Post-emergence glasshouse test, visual injury, VERPE; type: in vivo
Outline: (§1)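 Seeds sown in sandy loam soil; seedlings grown to BBCH 12-14, then sprayed with active ingredient (g/ha) in acetone/water 50:50 plus 0.5% Tween 20; plants kept in glasshouse, watered as needed; damage assessed after 14±1 days as % of untreated.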

[1] = system: Amaranthus retroflexus (AMARE); test: Post-emergence glasshouse test, visual injury, AMARE; type: in vivo
Outline: as §1

[2] = system: Lolium multiflorum (LOLMU); test: Post-emergence glasshouse test, visual injury, LOLMU; type: in vivo
Outline: as §1

[3] = system: Echinochloa crus-gaffi (ECHCG); test: Post-emergence glasshouse test, visual injury, ECHCG; type: in vivo, Echinochloa crus-galli
Outline: as §1

Cc1cc(-c2cnc(NC(C)C)nc2-c2ccc(C)o2)on1 [Compound 51]
pest or weed control at 500 g/ha (Veronica persica (VERPE)): 0%
pest or weed control at 500 g/ha [1]: 0%
pest or weed control at 500 g/ha [2]: 0%
pest or weed control at 500 g/ha [3]: 70%

Cc1cc(-c2cnc(NC3CC3)nc2C(C)C)on1 [Compound 38]
pest or weed control at 500 g/ha (Veronica persica (VERPE)): 100%
pest or weed control at 500 g/ha [1]: 100%
pest or weed control at 500 g/ha [2]: 50%
pest or weed control at 500 g/ha [3]: 60%

Cc1cc(-c2cnc(N3CCC(C(N)=O)CC3)nc2C(C)C)on1 [Compound 69]
pest or weed control at 500 g/ha (Veronica persica (VERPE)): 60%
pest or weed control at 500 g/ha [1]: 50%
pest or weed control at 500 g/ha [2]: 0%
pest or weed control at 500 g/ha [3]: 0%

Cc1cc(-c2cnc(NCc3ccccc3C)nc2C(C)C)on1 [Compound 98]
pest or weed control at 62 g/ha (Veronica persica (VERPE); 62 g/ha): 80%
pest or weed control at 62 g/ha ([1]; 62 g/ha): 60%
pest or weed control at 62 g/ha ([2]; 62 g/ha): 0%
pest or weed control at 62 g/ha ([3]; 62 g/ha): 70%
